Laboratory results as given in patent publication US12428406B2 (PMV Pharmaceuticals, Inc., priority 2019, dated 2025).

molecular target: T1, p53 Y220C (Homo sapiens, UniProt P04637, Y220C); experiment: In vitro DNA binding activity assay (HTRF / TR-FRET): stabilization of p53 Y220C and increase of its DNA binding activity; type: biochemical; conditions: recombinant His-tagged p53 Y220C DNA binding domain (aa 94-312), biotin-labeled consensus DNA, incubated at 27° C. or 29° C. for 60 min
T1 construct: The recombinant protein was a truncation mutant containing only amino acids 94-312 of p53; made in house; host or cells: E. coli
How it was run: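 Homogeneous time-resolved fluorescence with E. coli-derived p53 Y220C and biotinylated consensus DNA. Room-temperature incubations of 15 and 20 min precede reading. SC150 denotes the compound concentration required for 50% increased DNA binding.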

T1 sequence (P04637 94-312, change not shown): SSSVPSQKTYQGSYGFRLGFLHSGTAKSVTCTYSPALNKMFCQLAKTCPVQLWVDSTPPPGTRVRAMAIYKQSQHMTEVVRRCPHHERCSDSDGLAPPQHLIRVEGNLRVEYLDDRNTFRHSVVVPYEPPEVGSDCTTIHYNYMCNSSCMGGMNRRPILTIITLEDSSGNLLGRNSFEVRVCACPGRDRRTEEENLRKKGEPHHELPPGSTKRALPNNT

| SC150 (concentration of the compound required to increase the DNA binding activity by 50%) | SMILES |
| --- | --- |
| + (+ = 0 μM ≤ SC150 < 0.05 μM) | COc1cc(S(C)(=O)=O)ccc1NCC#Cc1cc2c(NC3CCN([C@@H]4CCOC4)CC3)cccc2n1CC(F)(F)F [Compound 722A, 2-{3-[(4-methanesulfonyl-2-methoxyphenyl)amino]prop-1-yn-1-yl}-N-{1-[(3R)-oxolan-3-yl]piperidin-4-yl}-1-(2,2,2-trifluoroethyl)-1H-indol-4-amine] |
| + (+ = 0 μM ≤ SC150 < 0.05 μM) | CNC(=O)c1ccc(NCC#Cc2cc3c(N[C@@H]4CCN(C(C)(C)C)C[C@@H]4F)cccc3n2CC(F)(F)F)c(OC)c1 [Compound 1072A, 4-{[3-(4-{[(3S,4R)-1-tert-butyl-3-fluoropiperidin-4-yl]amino}-1-(2,2,2-trifluoroethyl)-1H-indol-2-yl)prop-2-yn-1-yl]amino}-3-methoxy-N-methylbenzamide] |
| + (+ = 0 μM ≤ SC150 < 0.05 μM) | COc1cc(C(=O)NC(C)C)ccc1NCC#Cc1cc2c(N[C@@H]3CCN(C)C[C@@H]3F)cccc2n1CC(F)(F)F [Compound 808A, 4-{[3-(4-{[(3S,4R)-3-fluoro-1-methylpiperidin-4-yl]amino}-1-(2,2,2-trifluoroethyl)-1H-indol-2-yl)prop-2-yn-1-yl]amino}-3-methoxy-N-(propan-2-yl)benzamide] |
| + (+ = 0 μM ≤ SC150 < 0.05 μM) | COc1cc(C(=O)N2CCOCC2)ccc1NCC#Cc1cc2c(N[C@@H]3CCN(C)C[C@@H]3F)cccc2n1CC(F)(F)F [Compound 909A] |
| + (+ = 0 μM ≤ SC150 < 0.05 μM) | CNS(=O)(=O)c1ccc(NCC#Cc2cc3c(N[C@H]4CC[C@H](N5CC6(COC6)C5)CC4)cccc3n2CC(F)(F)F)c(OC)c1 [Compound 263A, 4-((3-(4-(((1R,4R)-4-(2-oxa-6-azaspiro[3.3]heptan-6-yl)cyclo-hexyl)amino)-1-(2,2,2-trifluoroethyl)-1H-indol-2-yl)prop-2-yn-1-yl)amino)-3-methoxy-N-methylbenzene-sulfonamide] |
| + (+ = 0 μM ≤ SC150 < 0.05 μM) | COc1cc(S(C)(=O)=O)ccc1NCC#Cc1cc2c(N[C@@H]3CCN(C(C)=O)C[C@@H]3F)cccc2n1CC(F)(F)F [Compound 862A, 1-[(3S,4R)-3-fluoro-4-[(2-{3-[(4-methanesulfonyl-2-methoxyphenyl)amino]prop-1-yn-1-yl}-1-(2,2,2-trifluoroethyl)-1H-indol-4-yl)amino]piperidin-1-yl]ethan-1-one] |
| + (+ = 0 μM ≤ SC150 < 0.05 μM) | COc1cc(S(=O)(=O)N(C)C)ccc1NCC#Cc1cc2c(NC3CCS(=O)(=O)CC3)cccc2n1CC(F)(F)F [Compound 1044A, 4-[(3-{4-[(1,1-dioxo-1λ^6-thian-4-yl)amino]-1-(2,2,2-trifluoroethyl)-1H-indol-2-yl}prop-2-yn-1-yl)amino]-3-methoxy-N,N-dimethylbenzene-1-sulfonamide] |
| + (+ = 0 μM ≤ SC150 < 0.05 μM) | COc1cc(S(N)(=O)=O)ccc1NCC#Cc1cc2c(NC3CCN(C(=O)CN(C)C)CC3)cccc2n1CC(F)(F)F [Compound 751A] |
| + (+ = 0 μM ≤ SC150 < 0.05 μM) | CCC(=O)OCC(O)CN1CCC(Nc2cccc3c2cc(C#CCNc2ccc(S(C)(=O)=O)cc2OC)n3CC(F)(F)F)CC1 (centres unmarked) [Compound 594A] |
| + (+ = 0 μM ≤ SC150 < 0.05 μM) | COc1cc(S(N)(=O)=O)ccc1NCC#Cc1cc2c(N[C@H]3CCN(C(C)=O)[C@@H](C)C3)cccc2n1CC(F)(F)F [Compound 740A, 4-{[3-(4-{[(2S, 4S)-1-acetyl-2-methylpiperidin-4-yl]amino}-1-(2,2,2-trifluoroethyl)-1H-indol-2-yl)prop-2-yn-1-yl]amino}-3-methoxybenzene-1-sulfonamide] |
| + (+ = 0 μM ≤ SC150 < 0.05 μM) | COc1cc(S(=O)(=O)NC(C)=O)ccc1NCC#Cc1cc2c(N[C@H]3CC[C@H](N4CC5(COC5)C4)CC3)cccc2n1CC(F)(F)F [Compound 208A, N-(3-methoxy-4-{[3-(4-{[(1R,4R)-4-{2-oxa-6-azaspiro[3.3]heptan-6-yl}cyclohexyl]amino}-1-(2,2,2-trifluoro-ethyl)-1H-indol-2-yl)prop-2-yn-1-yl]amino}benzene-sulfonyl)acetamide] |
| + (+ = 0 μM ≤ SC150 < 0.05 μM) | COc1cc(C(=O)O)ccc1NCC#Cc1cc2c(N[C@H]3CCN(C(C)C)C[C@H]3F)cccc2n1CC(F)(F)F [Compound 810A, 4-{[3-(4-{[(3R,4S)-3-fluoro-1-(propan-2-yl)piperidin-4-yl]amino}-1-(2,2,2-trifluoroethyl)-1H-indol-2-yl)prop-2-yn-1-yl]amino}-3-methoxybenzoic acid] |
| + (+ = 0 μM ≤ SC150 < 0.05 μM) | CNC(=O)c1ccc(NCC#Cc2cc3c(N[C@H]4CC[C@H](N)CC4)cccc3n2CC(F)(F)F)c(OC)c1 [Compound 24A, 3-methoxy-N-methyl-4-{[3-(4-{[(1R,4R)-4-aminocyclo-hexyl]amino}-1-(2,2,2-trifluoroethyl)-1H-indol-2-yl)prop-2-yn-1-yl]amino}benzamide] |
| + (+ = 0 μM ≤ SC150 < 0.05 μM) | COc1cc(S(C)(=O)=O)ccc1NCC#Cc1cc2c(N[C@@H]3CCCNC3)cccc2n1CC(F)(F)F [Compound 463A, 2-{3-[(4-methanesulfonyl-2-methoxyphenyl)amino]prop-1-yn-1-yl}-N-[(3R)-piperidin-3-yl]-1-(2,2,2-trifluoroethyl)-1H-indol-4-amine] |
| + (+ = 0 μM ≤ SC150 < 0.05 μM) | COC(=O)c1ccc(NCC#Cc2cc3c(N[C@H]4CCN(C)C[C@@H]4F)cccc3n2CC(F)(F)F)c(OC)c1 (racemic) [Compound 777A, rac-Methyl 4-{[3-(4-{[(3R,4R)-3-fluoro-1-methylpiperidin-4-yl]amino}-1-(2,2,2-trifluoroethyl)-1H-indol-2-yl)prop-2-yn-1-yl]amino}-3-methoxybenzoate] |

| SMILES | SC150 (concentration of the compound required to increase the DNA binding activity by 50%) |
| --- | --- |
| CCOc1cc(S(C)(=O)=O)ccc1NCC#Cc1cc2c(N[C@H]3CC[C@@H](N4CC5CC(C4)O5)CC3)cccc2n1CC(F)(F)F [Compound 405A, 2-{3-[(2-ethoxy-4-mcthanesulfonyl-phenyl)amino]prop-1-yn-1-yl}-N-[(1S,4S)-4-{6-oxa-3-azabicyclo[3.1.1]heptan-3-yl}cyclohexyl]-1-(2,2,2-trifluoroethyl)-1H-indol-4-amine] | + (+ = 0 μM ≤ SC150 < 0.05 μM) |
| CCNC(=O)c1ccc(NCC#Cc2cc3c(N[C@H]4CC[C@H](N5CC6CC(C5)O6)CC4)cccc3n2CC(F)(F)F)c(OC)c1 [Compound 406A, N-ethyl-3-methoxy-4-{[3-(4-{[(1R,4R)-4-{6-oxa-3-azabicyclo[3.1.1]heptan-3-yl}cyclohexyl]amino}-1-(2,2,2-trifluoroethyl)-1H-indol-2-yl)prop-2-yn-1-yl]amino}benzamide] | + (+ = 0 μM ≤ SC150 < 0.05 μM) |
